Structures are written as SMILES.

Here are results for 30 compounds from patent publication US20230127839A1, “COMPOUNDS AND COMPOSITIONS FOR TREATING CONDITIONS ASSOCIATED WITH STING ACTIVITY” (IFM Due, Inc., priority 2019, published 2023).

The target in this test is T1, hSTING (Homo sapiens, UniProt Q86WV6, G230A/H232R/R293Q/R71H).
T1 construct: host or cells: THP1-Dual KO-IFNAR2 cells
T1 sequence (Q86WV6 whole entry R71H/G230A/H232R/R293Q): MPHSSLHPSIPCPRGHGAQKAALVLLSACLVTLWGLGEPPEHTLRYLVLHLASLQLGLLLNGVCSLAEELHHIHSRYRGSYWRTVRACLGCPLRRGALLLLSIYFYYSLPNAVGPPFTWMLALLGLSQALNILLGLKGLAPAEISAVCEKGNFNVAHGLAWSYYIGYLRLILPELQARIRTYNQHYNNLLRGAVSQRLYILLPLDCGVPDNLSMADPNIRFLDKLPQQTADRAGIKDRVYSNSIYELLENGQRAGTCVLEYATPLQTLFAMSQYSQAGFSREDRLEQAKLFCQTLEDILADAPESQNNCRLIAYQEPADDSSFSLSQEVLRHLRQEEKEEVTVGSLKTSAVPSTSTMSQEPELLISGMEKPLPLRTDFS
The test is described as follows: STING reporter assay (luciferase) in THP1-Dual KO-IFNAR2 cells stimulated with 2'3'cGAMP. Conditions: 2'3'cGAMP 15 μM, 24 h, luciferase reporter activity. The class given is cell-based. As to the method:
STING pathway activation by the compounds described herein is measured using THP1-Dual™ cells (KO-IFNAR2).
THP1-Dual™ KO-IFNAR2 Cells (obtained from invivogen) are maintained in RPMI, 10% FCS, 5 ml P/S, 2 mM L-glut, 10 mM Hepes, and 1 mM sodium pyruvate.
Compounds are spotted in empty 384 well tissue culture plates (Greiner 781182) by Echo for a final concentration of 0.0017-100 μM. Cells are plated into the TC plates at 40 μL per well, 2×10E6 cells/mL. For activation with STING ligand, 2′3′cGAMP (MW 718.38, obtained from Invivogen), is prepared in Optimem media.
The following solutions are prepared for each 1×384 plate: • Solution A: 2 mL Optimem with one of the following stimuli: • 60 uL of 10 mM 2′3′cGAMP->150 μM stock • Solution B: 2 mL Optimem with 60 μL Lipofectamine 2000->Incubate 5 min at RT
2 mL of solution A and 2 ml Solution B is mixed and incubated for 20 min at room temperature (RT). 20 uL of transfection solution (A+B) is added on top of the plated cells, with a final 2′3′cGAMP concentration of 15 μM. The plates are then centrifuged immediately at 340 g for 1 minute, after which they are incubated at 37° C., 5% CO2, >98% humidity for 24 h. Luciferase reporter activity is then measured. EC50 values are calculated by using standard methods known in the art.
Luciferase reporter assay: 10 μL of supernatant from the assay is transferred to white 384-plate with flat bottom and squared wells. One pouch of QUANTI-Luc™ Plus us dissolved in 25 mL of water. 100 μL of QLC Stabilizer per 25 mL of QUANTI-Luc™ Plus solution is added. 50 μL of QUANTI-Luc™ Plus/QLC solution per well is then added. Luminescence is measured on a Platereader (e.g., Spectramax I3X (Molecular Devices GF3637001)).
Luciferase reporter activity is then measured. EC50 values are calculated by using standard methods known in the art.
(Reporter assays use an easily measured gene product as a stand-in for the process of interest.)
`COCCN1CCN(c2ncc(NC(=O)Nc3c[nH]c4cc(F)c(F)cc34)cc2C)CC1` [Compound 123, 1-(5,6-difluoro-1H-indol-3-yl)-3-(6-(4-(2-methoxyethyl)piperazin-1-yl)-5-methylpyridin-3-yl)urea] displayed a concentration for a half-maximal effect (EC50) of 5 to 100 µM.

On to `O=C(Nc1cnc(N2CCN(CCC(F)(F)F)CC2)c(Cl)c1)Nc1c[nH]c2ccc(Cl)cc12` [Compound 124, 1-(5-chloro-1H-indol-3-yl)-3-(5-chloro-6-(4-(3,3,3-trifluoropropyl)piperazin-1-yl)pyridin-3-yl)urea], for which the EC50 fell in the range of 0.04 to 0.2 µM.

For `N#Cc1cc(NC(=O)Nc2c[nH]c3cc(F)c(F)cc23)cnc1C1CC(F)(F)C1` [Compound 125, 1-(5-cyano-6-(3,3-difluorocyclobutyl)pyridin-3-yl)-3-(5,6-difluoro-1H-indol-3-yl)urea], the EC50 is 0.2 to 1 µM.

The compound `O=C(Nc1cnc(N2CCN(CC(F)(F)F)CC2)c(Cl)c1)Nc1c[nH]c2ccc(Cl)cc12` [Compound 126, 1-(5-chloro-1H-indol-3-yl)-3-(5-chloro-6-(4-(2,2,2-trifluoroethyl)piperazin-1-yl)pyridin-3-yl)urea] returned an EC50 of 0.04 to 0.2 µM.

For `O=C(Nc1cnc(N2CCC(F)(F)CC2)c(CCO)c1)Nc1c[nH]c2ccc(Cl)cc12` [Compound 127, 1-(5-chloro-1H-indol-3-yl)-3-(6-(4,4-difluoropiperidin-1-yl)-5-(2-hydroxyethyl)pyridin-3-yl)urea], the EC50 lay in the range of 0.2 to 1 µM.

Consider `O=C(Nc1ccc(N2CCC(F)(F)CC2)nc1)Nc1c[nH]c2cc(Cl)c(Cl)cc12` [Compound 128, 1-(5,6-dichloro-1H-indol-3-yl)-3-(6-(4,4-difluoropiperidin-1-yl)pyridin-3-yl)urea], for which the EC50 is 1 to 5 µM.

In the case of `Cc1cc(NC(=O)Nc2c[nH]c3ccc(Cl)cc23)cnc1N1CC2(C1)CC(F)(F)C2` [Compound 129, 1-(5-chloro-1H-indol-3-yl)-3-(6-(6,6-difluoro-2-azaspiro[3.3]heptan-2-yl)-5-methylpyridin-3-yl)urea], the EC50 was 0.04 to 0.2 µM.

Compound `O=C(Nc1ccc(C2CCC(F)(F)CC2)nc1)Nc1c[nH]c2ccc(Cl)cc12` [Compound 130, 1-(5-chloro-1H-indol-3-yl)-3-(6-(4,4-difluorocyclohexyl)pyridin-3-yl)urea] returned an EC50 of 0.04 to 0.2 µM.

Turning to `CCc1cc(NC(=O)Nc2c[nH]c3ccc(Cl)cc23)cnc1N1CCC(F)(F)CC1` [Compound 131, 1-(5-chloro-1H-indol-3-yl)-3-(6-(4,4-difluoropiperidin-1-yl)-5-ethylpyridin-3-yl)urea], the EC50 fell in the range of 0.04 to 0.2 µM.

`CCc1cc(NC(=O)Nc2c[nH]c3ccc(F)cc23)cnc1N1CCC(F)(F)CC1` [Compound 132, 1-(6-(4,4-difluoropiperidin-1-yl)-5-ethylpyridin-3-yl)-3-(5-fluoro-1H-indol-3-yl)urea] showed an EC50 of 0.04 to 0.2 µM.

For `Cc1cc(NC(=O)Nc2c[nH]c3ccc(Cl)cc23)cnc1C1CCN(CC(F)(F)F)CC1` [Compound 133, 1-(5-chloro-1H-indol-3-yl)-3-(5-methyl-6-(1-(2,2,2-trifluoroethyl)piperidin-4-yl)pyridin-3-yl)urea], the EC50 was in the range of 0.04 to 0.2 µM.

`COCCN1CCN(c2ncc(NC(=O)Nc3c[nH]c4cc(F)c(F)cc34)cc2Cl)CC1` [Compound 134, 1-(5-chloro-6-(4-(2-methoxyethyl)piperazin-1-yl)pyridin-3-yl)-3-(5,6-difluoro-1H-indol-3-yl)urea] displayed an EC50 of 1 to 5 µM.

In turn, `COCCN1CCN(c2ncc(NC(=O)Nc3c[nH]c4ccc(Cl)cc34)cc2Cl)CC1` [Compound 135, 1-(5-chloro-1H-indol-3-yl)-3-(5-chloro-6-(4-(2-methoxyethyl)piperazin-1-yl)pyridin-3-yl)urea] gave an EC50 of 0.2 to 1 µM.

For the compound `O=C(Nc1cnc(C2CCC(F)(F)CC2)c(CO)c1)Nc1c[nH]c2ccc(Cl)cc12` [Compound 136, 1-(5-chloro-1H-indol-3-yl)-3-(6-(4,4-difluorocyclohexyl)-5-(hydroxymethyl)pyridin-3-yl)urea], the EC50 was 0.2 to 1 µM.

In turn, `O=C(Nc1cnc(N2CC3(C2)CC(F)(F)C3)c(F)c1)Nc1c[nH]c2ccc(Cl)cc12` [Compound 137, 1-(5-chloro-1H-indol-3-yl)-3-(6-(6,6-difluoro-2-azaspiro[3.3]heptan-2-yl)-5-fluoropyridin-3-yl)urea] yielded an EC50 of 0.04 to 0.2 µM.

`O=C(Nc1cnc(N2CC3(C2)CC(F)(F)C3)c(Cl)c1)Nc1c[nH]c2ccc(Cl)cc12` [Compound 138, 1-(5-chloro-1H-indol-3-yl)-3-(5-chloro-6-(6,6-difluoro-2-azaspiro[3.3]heptan-2-yl)pyridin-3-yl)urea] registered an EC50 of 0.04 to 0.2 µM.

Compound `O=C(Nc1ccc(C2CC(F)(F)C2)c(F)c1)Nc1c[nH]c2ccc(Cl)cc12` [Compound 139, 1-(5-chloro-1H-indol-3-yl)-3-(4-(3,3-difluorocyclobutyl)-3-fluorophenyl)urea] yielded an EC50 of 0.04 to 0.2 µM.

Consider `O=C(Nc1cnc(C2CCC(F)(F)CC2)c(Cl)c1)Nc1c[nH]c2cc(Cl)ccc12` [Compound 140, 1-(6-chloro-1H-indol-3-yl)-3-(5-chloro-6-(4,4-difluorocyclohexyl)pyridin-3-yl)urea], for which the EC50 was in the range of 1 to 5 µM.

As to `O=C(Nc1cnc(C2CCC(F)(F)CC2)c(Cl)c1)Nc1c[nH]c2cc(F)ccc12` [Compound 141, 1-(5-chloro-6-(4,4-difluorocyclohexyl)pyridin-3-yl)-3-(6-fluoro-1H-indol-3-yl)urea], the EC50 was 0.2 to 1 µM.

Take `C[C@@H]1CN(c2ncc(NC(=O)Nc3c[nH]c4cc(F)c(F)cc34)cc2Cl)C[C@@H](C)O1` [Compound 142, 1-(5-chloro-6-((2R,6R)-2,6-dimethylmorpholino)pyridin-3-yl)-3-(5,6-difluoro-1H-indol-3-yl)urea]: the EC50 is 0.04 to 0.2 µM.

In the case of `O=C(Nc1cnc(N2CCC(F)(F)CC2)c(CCO)c1)Nc1c[nH]c2cc(F)c(F)cc12` [Compound 143, 1-(5,6-difluoro-1H-indol-3-yl)-3-(6-(4,4-difluoropiperidin-1-yl)-5-(2-hydroxyethyl)pyridin-3-yl)urea], the EC50 was in the range of 0.2 to 1 µM.

In the case of `O=C(Nc1cnc(C2CC(F)(F)C2)c(Cl)c1)Nc1c[nH]c2ccc(Cl)cc12` [Compound 144, 1-(5-chloro-1H-indol-3-yl)-3-(5-chloro-6-(3,3-difluorocyclobutyl)pyridin-3-yl)urea], the EC50 fell in the range of 0.04 to 0.2 µM.

For the compound `O=C(Nc1cnc(N2CCC3(CCCCO3)CC2)c(F)c1)Nc1c[nH]c2cc(F)ccc12` [Compound 145, 1-(6-fluoro-1H-indol-3-yl)-3-(5-fluoro-6-(1-oxa-9-azaspiro[5.5]undecan-9-yl)pyridin-3-yl)urea], the EC50 is 0.2 to 1 µM.

`C[C@@H]1CN(c2ncc(NC(=O)Nc3c[nH]c4cc(F)c(F)cc34)cc2Cl)C[C@H](C)O1` [Compound 146, 1-(5-chloro-6-((2R,6S)-2,6-dimethylmorpholino)pyridin-3-yl)-3-(5,6-difluoro-1H-indol-3-yl)urea] registered an EC50 of 0.04 to 0.2 µM.

On to `C[C@H]1CN(c2ncc(NC(=O)Nc3c[nH]c4cc(F)c(F)cc34)cc2Cl)C[C@H](C)O1` [Compound 147, 1-(5-chloro-6-((2S,6S)-2,6-dimethylmorpholino)pyridin-3-yl)-3-(5,6-difluoro-1H-indol-3-yl)urea], for which the EC50 fell in the range of 0.04 to 0.2 µM.

Compound `CO[C@H]1CCCN(c2ncc(NC(=O)Nc3c[nH]c4cc(F)c(F)cc34)cc2Cl)C1` [Compound 148, (S)-1-(5-chloro-6-(3-methoxypiperidin-1-yl)pyridin-3-yl)-3-(5,6-difluoro-1H-indol-3-yl)urea] displayed an EC50 of 0.04 to 0.2 µM.

`CO[C@@H]1CCCN(c2ncc(NC(=O)Nc3c[nH]c4cc(F)c(F)cc34)cc2Cl)C1` [Compound 149, (R)-1-(5-chloro-6-(3-methoxypiperidin-1-yl)pyridin-3-yl)-3-(5,6-difluoro-1H-indol-3-yl)urea] yielded an EC50 of 0.2 to 1 µM.

In turn, `COCCO[C@H]1CCN(c2ncc(NC(=O)Nc3c[nH]c4cc(F)c(F)cc34)cc2Cl)C1` [Compound 150, (S)-1-(5-chloro-6-(3-(2-methoxyethoxy)pyrrolidin-1-yl)pyridin-3-yl)-3-(5,6-difluoro-1H-indol-3-yl)urea] registered an EC50 of 0.2 to 1 µM.

`Cc1cc(NC(=O)Nc2c[nH]c3cc(F)c(F)cc23)cnc1N1CCO[C@@H](C)C1` [Compound 151, (S)-1-(5,6-difluoro-1H-indol-3-yl)-3-(5-methyl-6-(2-methylmorpholino)pyridin-3-yl)urea] had an EC50 of 0.2 to 1 µM.

Regarding `COCCO[C@@H]1CCN(c2ncc(NC(=O)Nc3c[nH]c4cc(F)c(F)cc34)cc2C)C1` [Compound 152, (R)-1-(5,6-difluoro-1H-indol-3-yl)-3-(6-(3-(2-methoxyethoxy)pyrrolidin-1-yl)-5-methylpyridin-3-yl)urea], the EC50 is 1 to 5 µM.

The EC50 is the midpoint of the concentration-response curve.
